Measurements: patent publication US20240382509A1, “Cannabinoids C- and O-glycosides possessing anti-proliferative and anti-metastatic properties and process for preparation thereof” (Council of Scientific and Industrial Research, priority 2021, published 2024)

Assays:
[1] = test system: HCT-116 cells; experiment: Annexin V/PI staining for apoptosis (FACS); type: cell-based; details: HCT-116, 750 nM 5FU+3 μM 2a
Experimental: 1×10^6 HCT-116 cells were seeded in 60 mm Petri dish and treated with vehicle, 3 μM 2a, 750 nM 5FU and 750 nM 5FU+3 μM 2a for indicated time points. After treatment termination, the cells were carefully trypsinized and the palette obtained were resuspended in 600 μL of binding buffer (10 mM HEPES [N-2-hydroxyethylpiperazine-N-2-ethanesulfonicacid], 140 mM NaCl, and 2.5 mM CaCl2, pH 7.4). Subsequently, the cells were stained with 6 μL of AnnexinV-FITC and 10 μL of propidium iodide for 20 min at room temperature in the dark. The samples were immediately analyzed by FACS (BD Accuri C6), and the scatter plot was obtained by BD Accuri C6 software.
(§1) The DNA damaging effect of compound 2a in combination with subtoxic doses of 5FU was further analyzed by Annexin/PI staining to check the activation of programmed cell death. […] Cumulatively, compound 2a elevated the DNA damaging effect and eventually leads to programmed cell death in combination with subtoxic doses of 5FU (FIG. 9b).

[2] = test system: Panc-1 cells; experiment: MTT cell viability assay, Panc-1; type: cell-based; details: Homo sapiens, PANC-1, 48 h, read-out: Cytotoxicity (IC50) Panc-1, MTT, 48 h; pancreatic cancer cells
Experimental: (§2) Cell viability assay: The cell viability was determined by the standard MTT assay method. Briefly, Panc-1, HCT-116, A549, PC3, MIAPaca-2, HT-29, MDA-MB-231, MCF7 cells, and fR2cells were seeded in 96 well tissue culture plates (Nunc) at a density of 4×10^3 cells per well and treated with varying concentrations of the test compounds in triplicates. DMSO was taken as a vehicle, and its final concentration was maintained at 0.2% in the culture medium. Doxorubicin was employed as a positive control. After 44 h of incubation, MTT dye solution was added into the medium, and cells were incubated for another 4 h at 37° C. in 5% CO2. The amount of colored formazan derivatives formed was measured by taking optical density (OD) using a microplate reader (TECAN, Infinite M200 Pro) at 570 nm, and the percentage of cell viability was calculated. The IC50 values were calculated using GraphPad Prism software (Version 5.0).

[3] = test system: HCT-116 cells; experiment: Chromosome isolation and staining (chromosomal stability); type: cell-based; details: HCT-116, 2a in combination with 5FU, compared to vehicle/750 nM 5FU/3 μM 2a
Description: (§3) The effect of the compound 2a in combination with DNA damaging drug 5-Fluorouracil in colon adenocarcinoma cells was studied. […] Consequently, the major repair factor RAD-51 got diminished as compared to 5FU alone treated lane. The immunoblot results also depicted the downmodulation of cellular survival factor BCL-2 and subsequent upregulation of proapoptotic protein Bax (FIG. 8a). […] Moreover, the effect of the combinatorial treatment on chromosomal stability in HCT-116 cells by chromosome isolation and staining was studied.

[4] = test system: γH2AX, RAD-51, BCL-2, Bax, caspase-3 in HCT-116 cells; experiment: Immunoblot after combinatorial treatment of 5FU and compound 2a; type: cell-based
Description: as §3, §1

[5] = test system: PC3 cells; experiment: MTT cell viability assay, PC3; type: cell-based; details: Homo sapiens, PC-3, 48 h, read-out: Cytotoxicity (IC50) PC3, MTT, 48 h
Experimental: as §2

[6] = test system: MIAPaCa-2 cells; experiment: Matrigel invasion assay, MIAPaCa-2; type: cell-based, human; details: MIAPaCa-2, from 0.5 μM (0.5-5 μM), 36 h
Experimental: Matrigel invasion assay: MIAPaCa-2 and MDA-MB-231 cells (1×10^6) were seeded onto matrigel coated inserts and treated with compound 2a (0.5, 1.5, 3 & 5 μM) for 36 h in 5% CO2 incubator at 37° C. The upper chamber is filled with serum-free media, and the lower half consists of 10% FBS supplemented media, thus creating a gradient of chemoattractant that facilitates the migration of cells. Upon termination, the inserts were washed with PBS, and the non-migratory cells were removed from the upper chamber by using a cotton plug. Further, the cells were fixed with methanol and stained later with 0.2% crystal violet. After drying, the inserts were observed under an inverted microscope at 20× magnification, and images were taken.
Now this particular derivative was further analysed for its ability to inhibit the molecular signatures of EMT. To this end, MIAPaCa-2 cells were treated with 0.5 μM, 1.5 μM, 3 μM and 5 μM of compound 2a for 36 h and were subjected to immunoblotting to study the expression of Snail-1, Twist-1, Vimentin and E-cadherin. […] To analyse more deeply the ability of this compound to affect migration/metastasis, MIAPaCa-2 cells were seeded onto Matrigel coated inserts and were treated with 0.5 μM, 1.5 μM, 3 μM and 5 μM of compound 2a. […] Formation of invadopodia and filopodia (migratory structures) constitutes the fundamental property of cells undergoing migration. […]

[7] = HCT-116, 2a in combination with 5FU

With `CCCCCc1cc(O[C@@H]2OC(CO)[C@@H](O)C(O)C2O)c2c(c1)OC(C)(C)[C@@H]1CCC(C)=C[C@@H]21` (stereo partly drawn) [Compound 2a, Δ^9-tetrahydrocannabinol-1-O-β-D-glucopyranoside] the “apoptosis (Annexin+/PI+)” value [1] was “induction of late phase of apoptosis”, the IC50 [2] was 3 µM and the chromosomal aberrations [3] was “significantly increases chromosomal abbreations”. For the same compound, the caspase-3 cleavage ([4]; HCT-116, 2a in association with 5FU, 48 and 60 h) was “incite caspase-3 cleavage”, the BCL-2 survival factor [4, 7] was “downmodulation” and the “proapoptotic protein Bax” value [4, 7] was “upregulation”. The “expression of γH2AX protein (immunoblot)” value ([4]; HCT-116, 2a in combination with 5FU, 36 and 48 h) was “enhanced expression”, the RAD-51 repair factor ([4]; HCT-116, 2a in combination with 5FU, compared to 5FU alone) was “diminished” and the IC50 [5] was 7.17 µM. For the same compound, the “cellular invasion, Matrigel” value [6] was “inhibition of cellular invasion”.
